By pEC50 is commonly meant −log10 of the EC50, conventionally taken in molar units.

pEC50: −log10 of the molar value. Counter-ions that a name gives are not always drawn.

18 compounds from patent publication US10472336B2, “Modulators of indoleamine 2,3-dioxygenase” (GlaxoSmithKline Intellectual Property (No.2) Limited, priority 2015, dated 2019) can be followed below.

In test [1] the target is T1, indoleamine 2, 3-dioxygenase (IDO1) (Homo sapiens, UniProt P14902). Briefly: HeLa IDOi assay (kynurenine detection by mass spectrometry). The test is classed as cell-based. The following applies: IFN-γ stimulated human epithelial HeLa cells, 2 days. More on the design: human epithelial HeLa cells (CCL-2; host or cells: HeLa cells stimulated with human IFN-γ. Here is the method:
(§1) Compounds of the present invention were tested via high-throughput cellular assays utilizing detection of kynurenine via mass spectrometry and cytotoxicity as end-points. For the mass spectrometry and cytotoxicity assays, human epithelial HeLa cells (CCL-2; ATCC®, Manassas, Va.) were stimulated with human interferon-γ (IFN-γ) (Sigma-Aldrich Corporation, St. Louis, Mo.) to induce the expression of indoleamine 2, 3-dioxygenase (IDO1). Compounds with IDO1 inhibitory properties decreased the amount of kynurenine produced by the cells via the tryptophan catabolic pathway. Cellular toxicity due to the effect of compound treatment was measured using CellTiter-Glo® reagent (CTG) (Promega Corporation, Madison, Wis.), which is based on luminescent detection of ATP, an indicator of metabolically active cells.
(§2) In preparation for the assays, test compounds were serially diluted 3-fold in DMSO from a typical top concentration of 5 mM and plated at 0.5 μL in 384-well, polystyrene, clear bottom, tissue culture treated plates with lids (Greiner Bio-One, Kremsmünster, Austria) to generate 11-point dose response curves. Low control wells (0% kynurenine or 100% cytotoxicity) contained either 0.5 μL of DMSO in the presence of unstimulated (−IFN-γ) HeLa cells for the mass spectrometry assay or 0.5 μL of DMSO in the absence of cells for the cytotoxicity assay, and high control wells (100% kynurenine or 0% cytotoxicity) contained 0.5 μL of DMSO in the presence of stimulated (+IFN-γ) HeLa cells for both the mass spectrometry and cytotoxicity assays.
Frozen stocks of HeLa cells were washed and recovered in DMEM high glucose medium with HEPES (Thermo Fisher Scientific, Inc., Waltham, Mass.) supplemented with 10% v/v certified fetal bovine serum (FBS) (Thermo Fisher Scientific, Inc., Waltham, Mass.), and 1× penicillin-streptomycin antibiotic solution (Thermo Fisher Scientific, Inc., Waltham, Mass.). The cells were diluted to 100,000 cells/mL in the supplemented DMEM medium. 50 μL of either the cell suspension, for the mass spectrometry assay, or medium alone, for the cytotoxicity assay, were added to the low control wells, on the previously prepared 384-well compound plates, resulting in 5,000 cells/well or 0 cells/well respectively. IFN-γ was added to the remaining cell suspension at a final concentration of 10 nM, and 50 μL of the stimulated cells were added to all remaining wells on the 384-well compound plates. The plates, with lids, were then placed in a 37° C., 5% CO2 humidified incubator for 2 days.
(§3) Following incubation, the 384-well plates were removed from the incubator and allowed to equilibrate to room temperature for 30 minutes. For the cytotoxicity assay, CellTiter-Glo® was prepared according to the manufacturer's instructions, and 10 μL were added to each plate well. After a twenty minute incubation at room temperature, luminescence was read on an EnVision® Multilabel Reader (PerkinElmer Inc., Waltham, Mass.). For the mass spectrometry assay, 10 μL of supernatant from each well of the compound-treated plates were added to 40 μL of acetonitrile, containing 10 μM of an internal standard for normalization, in 384-well, polypropylene, V-bottom plates (Greiner Bio-One, Kremsmünster, Austria) to extract the organic analytes. Following centrifugation at 2000 rpm for 10 minutes, 10 μL from each well of the acetonitrile extraction plates were added to 90 μL of sterile, distilled H2O in 384-well, polypropylene, V-bottom plates for analysis of kynurenine and the internal standard on the RapidFire 300 (Agilent Technologies, Santa Clara, Calif.) and 4000 QTRAP MS (SCIEX, Framingham, Mass.). MS data were integrated using Agilent Technologies' RapidFire Integrator software, and data were normalized for analysis as a ratio of kynurenine to the internal standard. […]

Test [2] addresses T1, indoleamine 2, 3-dioxygenase (IDO1). Briefly: PBMC IDOi assay (kynurenine detection by mass spectrometry). The test is classed as cell-based. The following applies: IFN-γ and LPS stimulated human PBMC, 2 days. On the procedure:
as §1, with “peripheral blood mononuclear” for “epithelial HeLa”, “(PBMC) (PB003F; AllCells®, Alameda, Calif.)” for “(CCL-2; ATCC®, Manassas, Va.)”, “Mo.) and lipopolysaccharide from Salmonella minnesota (LPS) (Invivogen, San Diego, Calif.)” for “Mo.)”
as §2, with “(−IFN-γ/−LPS) PBMCs” for “(−IFN-γ) HeLa cells”, “(+IFN-γ/+LPS) PBMCs” for “(+IFN-γ) HeLa cells”
Frozen stocks of PBMCs were washed and recovered in RPMI 1640 medium (Thermo Fisher Scientific, Inc., Waltham, Mass.) supplemented with 10% v/v heat-inactivated fetal bovine serum (FBS) (Thermo Fisher Scientific, Inc., Waltham, Mass.), and 1× penicillin-streptomycin antibiotic solution (Thermo Fisher Scientific, Inc., Waltham, Mass.). The cells were diluted to 1,000,000 cells/mL in the supplemented RPMI 1640 medium. 50 μL of either the cell suspension, for the mass spectrometry assay, or medium alone, for the cytotoxicity assay, were added to the low control wells, on the previously prepared 384-well compound plates, resulting in 50,000 cells/well or 0 cells/well respectively. IFN-γ and LPS were added to the remaining cell suspension at final concentrations of 100 ng/ml and 50 ng/ml respectively, and 50 μL of the stimulated cells were added to all remaining wells on the 384-well compound plates. The plates, with lids, were then placed in a 37° C., 5% CO2 humidified incubator for 2 days.
as §3, with “and 40” for “and 10”

T1 sequence (P14902 whole entry): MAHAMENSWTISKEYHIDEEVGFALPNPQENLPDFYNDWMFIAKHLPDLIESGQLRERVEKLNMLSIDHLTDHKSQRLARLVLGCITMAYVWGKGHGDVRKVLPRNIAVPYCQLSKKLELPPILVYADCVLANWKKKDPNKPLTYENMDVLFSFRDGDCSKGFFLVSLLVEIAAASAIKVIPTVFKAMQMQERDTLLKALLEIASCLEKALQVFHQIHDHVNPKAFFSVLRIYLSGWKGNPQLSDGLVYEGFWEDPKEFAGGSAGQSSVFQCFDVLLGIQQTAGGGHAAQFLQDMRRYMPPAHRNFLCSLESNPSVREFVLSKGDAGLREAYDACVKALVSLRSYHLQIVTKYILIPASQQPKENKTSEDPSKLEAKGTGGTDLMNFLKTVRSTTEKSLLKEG

Regarding `CC(C)CN(CC(C)C)c1ccc(C(C)CC(=O)O)cc1Nc1nc2ccccc2o1` (centres unmarked) [Example 1, 3-(3-(benzo[d]oxazol-2-ylamino)-4-(diisobutylamino)phenyl)butanoic acid], the pEC50 was 6.40 in test [1] and 6.20 in test [2].
The corresponding values for `COc1nccc(Nc2cc(C(C)CC(=O)O)ccc2N(CC(C)C)CC(C)C)n1` (centres unmarked) [Example 12, 3-(4-(diisobutylamino)-3-((2-methoxypyrimidin-4-yl)amino)phenyl)butanoic acid, 2,2,2-trifluoroacetic acid salt] are 6.90 and 6.80.
The corresponding values for `CC(C)CN(CC(C)C)c1ccc(C(C)CC(=O)O)cc1Nc1ccncc1` (centres unmarked) [Example 18, 3-(4-(diisobutylamino)-3-(pyridin-4-ylamino)phenyl)butanoic acid] are 6.50 and 6.70.
As to `CC(C)CN(c1ccc(C(C)CC(=O)O)cc1NC1CCCCC1)C1CCCCC1` (centres unmarked) [Example 19, 3-(4-(cyclohexyl(isobutyl)amino)-3-(cyclohexylamino)phenyl)butanoic acid], the results for the pEC50 in test [1] and in test [2] were 7.00 and 7.30, respectively.
In the case of `CC(C)CN(c1ccc(C(C)CC(=O)O)cc1NCc1cccs1)C1CCCCC1` (centres unmarked) [Example 20, 3-(4-(cyclohexyl(isobutyl)amino)-3-((thiophen-2-ylmethyl)amino)phenyl)butanoic acid], the pEC50 in test [1] is 6.90; in test [2], 7.30.
In test [1], `CC(C)CN(CC(C)C)c1ccc(C(C)CC(=O)O)cc1Nc1nc(C(C)C)cs1` (centres unmarked) [Example 46, 3-(4-(diisobutylamino)-3-((4-isopropylthiazol-2-yl)amino)phenyl)butanoic acid] gave a pEC50 of 6.90.
Still for that read-out and setting: under `CC(C)CN(CC(C)C)c1ccc(C(C)CC(=O)O)cc1Nc1nc(-c2ccccc2)no1` (centres unmarked) [Example 51, 3-(4-(diisobutylamino)-3-((3-phenyl-1,2,4-oxadiazol-5-yl)amino)phenyl)butanoic acid] stands 6.40.
On the same count and under the same terms, under `CC(C)CN(c1ccc(C(C)CC(=O)O)cc1Nc1nc(Br)ns1)C1CCCCC1` (centres unmarked) [Example 52, 3-(3-((3-bromo-1,2,4-thiadiazol-5-yl)amino)-4-(cyclohexyl(isobutyl)amino)phenyl)butanoic acid] stands 7.10.
Turning to `CC(C)CN(c1ccc([C@H](C)CC(=O)O)cc1NC1CCCCC1)C1CCCCC1` [Example 64, (R)-3-(4-(cyclohexyl(isobutyl)amino)-3-(cyclohexylamino)phenyl)butanoic acid], in test [2], the negative logarithm of the EC50 (pEC50) was 7.20.
As for `CC(C)CN(c1ccc(C(C)CC(=O)O)cc1Nc1cccc(C(F)(F)F)c1)C1CCCCC1` (centres unmarked) [Example 65, 3-(4-(cyclohexyl(isobutyl)amino)-3-((3-(trifluoromethyl)phenyl)amino)phenyl)butanoic acid], in test [2], the negative logarithm of the EC50 (pEC50) is 7.80.
On the same count and under the same terms, under `CC(C)CN(c1ccc(C(C)CC(=O)O)cc1Nc1ccc(C(F)(F)F)cc1)C1CCCCC1` (centres unmarked) [Example 66, 3-(4-(cyclohexyl(isobutyl)amino)-3-((4-(trifluoromethyl)phenyl)amino)phenyl)butanoic acid] stands 8.90.
In turn, `CC(C)CN(c1ccc(C(C)CC(=O)O)cc1Nc1ccc(C#N)cc1)C1CCCCC1` (centres unmarked) [Example 67, 3-(3-((4-cyanophenyl)amino)-4-(cyclohexyl(isobutyl)amino)phenyl)butanoic acid] showed a pEC50 in test [2] of 9.10.
With `CC(C)CN(c1ccc(C(C)CC(=O)O)cc1Nc1ccccc1)C1CCCCC1` (centres unmarked) [Example 68, 3-(4-(cyclohexyl(isobutyl)amino)-3-(phenylamino)phenyl)butanoic acid], in test [2], the negative logarithm of the EC50 (pEC50) was 8.50.
With `CC(C)CN(c1ccc(C(C)CC(=O)O)cc1NCc1ccccc1)C1CCCCC1` (centres unmarked) [Example 69, 3-(3-(Benzylamino)-4-(cyclohexyl(isobutyl)amino)phenyl)butanoic Acid], in test [1], the pEC50 is 6.80.
As to `CC(C)CN(c1ccc(C(C)CC(=O)O)cc1NC1CCOCC1)C1CCCCC1` (centres unmarked) [Example 70, 3-(4-(Cyclohexyl(isobutyl)amino)-3-((tetrahydro-2H-pyran-4-yl)amino)phenyl)butanoic Acid], in test [1], the negative-log EC50 (pEC50) was 6.90.
In the case of `CC(C)CN(c1ccc(C(C)CC(=O)O)cc1NC1=N[C@H](c2ccccc2)CO1)C1CCCCC1` (stereo partly drawn) [Example 72, 3-(4-(Cyclohexyl(isobutyl)amino)-3-(((R)-4-phenyl-4,5-dihydrooxazol-2-yl)amino)phenyl)butanoic Acid], the pEC50 in test [1] was 6.50.
With `CC(C)CN(c1ccc(C(C)CC(=O)O)cc1NC1=N[C@@H](C)CS1)C1CCCCC1` (stereo partly drawn) [Example 73, 3-(4-(cyclohexyl(isobutyl)amino)-3-(((S)-4-methyl-4,5-dihydrothiazol-2-yl)amino)phenyl) butanoic acid], in test [1], the pEC50 was 6.40.
`CC(C)CN(c1ccc(C(C)CC(=O)O)cc1NC1=N[C@H](C)CS1)C1CCCCC1` (stereo partly drawn) [Example 74, 3-(4-(Cyclohexyl(isobutyl)amino)-3-(((R)-4-methyl-4,5-dihydrothiazol-2-yl)amino)phenyl)butanoic Acid] gave a pEC50 in test [1] of 6.40.
